Bridge positions count the residues as written; N and C are the ends. Square brackets hold non-standard residues; d marks the D form. Peptide text beside a SMILES is read from it. * marks the point of attachment. Heptanoyl(5-Me) = CCC(C)CCCC(=O)*; Dab = NCC[C@H](N)C(=O)O
Key:
[1] = test system: A. haemolyticus 1655843; experiment: Checkerboard colistin sulphate (CS) plus teicoplanin (TP), MIC/FIC and MBC/FBC; assay type: cell-based, Acinetobacter haemolyticus; conditions: agent alone, CAMHB, 5*10^5 CFU/ml; for MIC: A. haemolyticus 1655843, 24 h
Experimental: Checkerboard analysis to determine minimal inhibitory concentration (MIC)/fractional inhibitory concentration (FIC) and minimal […] (MBC)/fractional […] (FBC) values of colistin sulphate (CS) plus teicoplanin (TP) for 6 Gram-negative strains with a bacterial load 5(1-10)*10^5 CFU/ml in a cation-adjusted Mueller-Hinton broth (CAMHB). • a. Antimicrobial stock solutions were prepared using sterile distilled water • b. CS was added along the ordinate; TP was added along the abscissa to 96 well, flat bottom, polystyrene panels with no treatment. Colistin alone was tested in triplicates. • c. Serial 2-fold dilutions starting with 640 μg/ml CS and 640 μg/ml TP were made; 15 μl volume of the serial dilutions were added for each agent to the appropriate wells; final volume at 30 μl • d. For each agent tested alone an additional 15 μl media was added to the well. 30 μl were added in control wells where none of the agent was tested. The negative control well contains 150 μl media without any additions • e. From an overnight bacterial culture in tryptic soy broth, 100 μL was added to 10 mL of fresh tryptic soy broth. This was then incubated at 37° C. for 1.5 hour at 180 rpm. • f. Bacteria in 120 μl CAMHB were added to each well (end concentration 5(1-10)*10^5 CFU/ml) • g. Plates were incubated at 37° C. in an ambient air incubator for 24 h • h. Turbidity at OD600 is determined with a plate photometer • i. By using a one-time inoculator 3 μl from each well of the 96-well plate were transferred to three blood agar plates. The plates were incubated over night at 37° C. in an ambient air incubator • j. MIC values are defined as lowest concentration which restricts bacterial growth to OD600 ≤0.1 • k. MBC values were determined by visual reading the lowest concentration which inhibits 99.9% of the growth of bacteria in the wells • l. Determination of the fractional inhibitory concentration (FIC) index and fractional bactericidal concentration (FBC) index and characterization of antimicrobial interactions was assessed […]
FIC calculation was carried out as: (MIC of drug A, tested in combination)/(MIC of drug A, tested alone)+(MIC of drug B, tested in combination)/(MIC of drug B, tested alone). FBC calculation was carried out just as well […]
Interactive categories were calculated from checkerboard analysis using MIC results from testing each agent alone and MIC results from the combination wells adjacent to the wells with growth in them […]
b. Indifference; FIC/FBC>0.5 to<4.0 c. Antagonism; FIC/FBC≥4.0 c. A. haemolyticus 1655843 (IHMA), colistin resistant

[2] = test system: A. haemolyticus 1655843; experiment: Checkerboard fusidic acid (FD) and colistin sulfate (CS), MIC/FIC and MBC/FBC; assay type: cell-based, Acinetobacter haemolyticus; conditions: agent alone, CAMHB, 1*10^6 CFU/ml
Experimental: Checkerboard assays between fusidic acid (FD) and colistin sulfate (CS) with a bacterial load 5(1-10)*10^5 CFU/ml in cationic adapted Mueller Hinton broth (CAMHB). • a. Antimicrobial stock solutions were prepared using sterile distilled water; • b. CS was added along the ordinate; FD was added along the abscissa to 96 well, flat bottom, polystyrene panels with no treatment. Colistin alone was tested in triplicates; • c. Serial 2-fold dilutions starting with 640 […] CS and 640 μg/ml FD were made; 15 μl volume of the serial dilutions were added for each agent to the appropriate wells—final volume at 30 μl; • d. For each agent tested alone an additional 15 μl media was added to the well. 30 μl were added in control wells where none of the agent was tested. The negative control well contains 150 μl media without any additions; • e. From an overnight bacterial culture in tryptic soy broth, 100 μL was added to 10 mL of fresh tryptic soy broth. This was then incubated at 37° C. for 1.5 hour at 180 rpm; • f. Bacteria in 120 μl CAMHB were added to each well (end concentration 5(1-10)*10^5 CFU/ml); • g. Plates were incubated at 37° C. in an ambient air incubator for 24 h • h. Turbidity at OD600 is determined with a plate photometer • i. By using a one-time inoculator 3 μl from each well of the 96-well plate were transferred to three blood agar plates. The plates were incubated over night at 37° C. in an ambient air incubator; • j. MIC values are defined as lowest concentration which restricts bacterial growth to OD600≤0.1; • k. MBC values were determined by visual reading the lowest concentration which inhibits 99.9% of the growth of bacteria in the wells; • l. Determination of the fractional inhibitory concentration (FIC) index and fractional bactericidal concentration (FBC) index and characterization of antimicrobial interactions was assessed;
FIC calculation was carried out as: (MIC of drug A, tested in combination)/(MIC of drug A, tested alone)+(MIC of drug B, tested in combination)/(MIC of drug B, tested alone). FBC calculation was carried out just as well;
Interactive categories were calculated from checkerboard analysis using MIC results from testing each agent alone and MIC results from the combination wells adjacent to the wells with growth in them.
Determination of the fractional inhibitory concentration (FIC) index and fractional bactericidal concentration (FBC) index and characterization of antimicrobial interactions was assessed:
(ii) Indifference; FIC/FBC>0.5 to <4.0
(iii) Antagonism; FIC/FBC≥4.0
c. Acinetobacter haemolyticus 1655843 (IHMA), colistin resistant (3xCS>16/>16-64/>64)

SMILES: CCC(C)CCCC(=O)N[C@@H](CCN)C(=O)N[C@H](C(=O)N[C@@H](CCN)C(=O)N[C@H]1CCNC(=O)[C@H]([C@@H](C)O)NC(=O)[C@H](CCN)NC(=O)[C@H](CCN)NC(=O)[C@H](CC(C)C)NC(=O)[C@@H](CC(C)C)NC(=O)[C@H](CCN)NC1=O)[C@@H](C)O (stereo partly drawn) [CS, colistin sulphate] ({Heptanoyl(5-Me)}-[Dab]T[Dab][Dab][Dab][dL]L[Dab][Dab]T; lactam 4-C)
- MIC [1]: >16 µg/mL
- MIC ([1]; listed as colistin): ≥ 4 µg/mL
- MBC ([1]; Acinetobacter haemolyticus, 1655843, A. haemolyticus, read-out: MBC): > 16 µg/mL
- MIC ([2]; A. haemolyticus 1655843, 24 h): 64 mg/1l
- MBC ([2]; Acinetobacter haemolyticus, 1655843, A. haemolyticus 1655843): > 64 µg/mL
